Measured values published in patent US11903994B2, “Dosing regimens” (Apellis Pharmaceuticals, Inc., priority 2015, dated 2024).
Non-standard residues stand in square brackets, D forms with d. Trp(5-F) = N[C@@H](Cc1c[nH]c2ccc(F)cc12)C(=O)O; Trp(6-F) = N[C@@H](Cc1c[nH]c2cc(F)ccc12)C(=O)O; Bpa = N[C@@H](Cc1ccc(C(=O)c2ccccc2)cc1)C(=O)O; 1Nal = N[C@@H](Cc1cccc2ccccc12)C(=O)O; 2Nal = N[C@@H](Cc1ccc2ccccc2c1)C(=O)O; Igl = N[C@H](C(=O)O)C1Cc2ccccc2C1

Columns and labels:
complement activation = settings: relative to compstatin amidated at the C-terminus; published data; cited from earlier work
[1] = Inhalation study, repeated dosing; assay type: in vivo, dog; settings: 25 mg/kg/d, 7 day repeated dose, inhaled CA28
Protocol: (§1) Inhalation studies of single dose or repeated dosing were conducted in dog and cynomolgus monkey. […] These doses were 25 mg/kg/d in a 7 day repeated dose study in the dog, 80 mg/kg in a single dose study in the monkey, and 30 mg/kg/day in a 14 day repeated dose in the monkey.

[2] = Phase 1 single and multiple ascending dose trial, inhaled (nebulized), healthy volunteers; assay type: in vivo, human
Protocol: In the single ascending dose part of the trial, 16 subjects were enrolled in four cohorts of four subjects each.
Four subjects were enrolled in the first cohort of the multiple ascending dose part of the trial. These subjects were to receive 14 consecutive days of treatment with a 60 mg/day dose of the drug. […] The trial was paused and subsequently resumed, with subjects receiving 30 mg/day. […] The trial was then terminated.

[3] = Inhalation studies, single and repeated dosing; assay type: in vivo, cynomolgus monkey; settings: inhaled CA28
Protocol: as §1

Compound	Activity over compstatin (complement activation)	further results
Ac-ICV(2-Nal)QDWGAHRCT-CONH2 (Ac-ICV[2Nal]QDWGAHRCT-NH2; not fully specified (bridges); printed as Ac-ICV(2-Nal)QDWGAHRCT-CONH2; cysteine pairing not given here) [Ac-V4(2-Nal)/H9A]	99xmore	
Ac-ICV(2-Nal)QDWGAHRCT-COOH (Ac-ICV[2Nal]QDWGAHRCT-OH; not fully specified (bridges); printed as Ac-ICV(2-Nal)QDWGAHRCT-COOH; cysteine pairing not given here) [Ac V4(2-Nal)/H9A-OH]	38xmore	
Ac-ICV(Bpa)QDWGAHRCT-CONH2 (Ac-ICV[Bpa]QDWGAHRCT-NH2; not fully specified (bridges); printed as Ac-ICV(Bpa)QDWGAHRCT-CONH2; cysteine pairing not given here) [Ac-V4(Bpa)/H9A]	86xmore	
CC[C@H](C)[C@H](NC(C)=O)C(=O)N[C@H]1CSSC[C@@H](C(=O)N[C@H](C(N)=O)[C@@H](C)O)NC(=O)[C@H](CCCNC(=N)N)NC(=O)[C@H](Cc2cnc[nH]2)NC(=O)[C@H](C)NC(=O)CNC(=O)[C@H](Cc2c[nH]c3ccccc23)NC(=O)[C@H](CC(=O)O)NC(=O)[C@H](CCC(N)=O)NC(=O)[C@H](Cc2cn(C)c3ccccc23)NC(=O)[C@H](C(C)C)NC1=O [CA28]		findings at the highest inhaled dose tested [1]: no drug-related findings; adverse event possibly related to the pharmacology of the drug ([2]; inhaled CA28 30 mg/day, after 10 days of treatment): Another subject developed signs and symptoms consistent with a potential bacterial infection; adverse event possibly related to the pharmacology of the drug ([2]; inhaled CA28 60 mg/day, following nine days of treatment): one subject developed signs and symptoms consistent with a potential bacterial infection; findings at the highest inhaled dose tested ([3]; 30 mg/kg/day, 14 day repeated dose): no drug-related findings; findings at the highest inhaled dose tested ([3]; 80 mg/kg, single dose): no drug-related findings
Ac-ICVWQDWGAHRCdT-COOH [Ac-V4W/H9A/T13dT-OH]	55xmore	
Ac-ICV(5fW)QDWGAHRCT-CONH2 [Ac-V4(5fW)/H9A]	31xmore	
Ac-ICVYQDWGAHRCT-CONH2 [Ac-V4Y/H9A]	14xmore	
Ac-ICVWQDWGAHRCT-CONH2 [Ac-V4W/H9A]	45xmore	
Ac-ICVDhtQDWGAHRCT-COOH [Ac-V4Dht/H9A-OH]	5xmore	
H-GICV(6fW)QD(6fW)GAHRCTN-COOH (H-GICV[Trp(6-F)]QD[Trp(6-F)]GAHRCTN-OH; not fully specified (bridges); cysteine pairing not given here) [+G/V4(6fW)/W7(6fW)H9A + N-OH]	126xmore	
Ac-ICV(2-lgl)QDWGAHRCT-CONH2 (Ac-ICV[Igl]QDWGAHRCT-NH2; not fully specified (bridges); printed as Ac-ICV(2-lgl)QDWGAHRCT-CONH2; cysteine pairing not given here) [Ac-V42lgl/H9A]	39xmore	
Ac-ICV(2-lgl)QDWGAHRCT-COOH (Ac-ICV[Igl]QDWGAHRCT-OH; not fully specified (bridges); printed as Ac-ICV(2-lgl)QDWGAHRCT-COOH; cysteine pairing not given here) [Ac-V42lgl/H9A-OH]	37xmore	
Ac-ICVVQDWGHHRCT-CONH2 [Ac-compstatin]	3xmore	
Ac-ICV(Bpa)QDWGAHRCT-COOH (Ac-ICV[Bpa]QDWGAHRCT-OH; not fully specified (bridges); printed as Ac-ICV(Bpa)QDWGAHRCT-COOH; cysteine pairing not given here) [Ac-V4(Bpa)/H9A-OH]	49xmore	
Ac-ICV(5-methyl-W)QDWGAHRCT-CONH2 [Ac-V4(5-MeW)/H9A]	67xmore	
Ac-ICVWQD(5fW)GAHRCT-CONH2 [Ac-V4W/W7(5fW)/H9A]	121xmore	
H-GICV(5fW)QD(5fW)GAHRCTN-COOH (H-GICV[Trp(5-F)]QD[Trp(5-F)]GAHRCTN-OH; not fully specified (bridges); cysteine pairing not given here) [G/V4(5f-W)/W7(5fW)/H9A + N-OH]	112xmore	
Ac-ICV(1-Nal)QDWGAHRCT-COOH (Ac-ICV[1Nal]QDWGAHRCT-OH; not fully specified (bridges); printed as Ac-ICV(1-Nal)QDWGAHRCT-COOH; cysteine pairing not given here) [Ac V4(1-Nal)/H9A-OH]	30xmore	
